Data on one compound can be found in patent US20210246140A1, “MODULATORS OF METABOTROPIC GLUTAMATE RECEPTOR 2” (The General Hospital Corporation, priority 2020, published 2021).

In data set [1] the test system is other mGlu receptors (mGluR1, mGluR3, mGluR4, mGluR5, mGluR6, mGluR8). Put plainly: Selectivity among mGluR subtypes (Ca2+ mobilization assay and cAMP assay). In kind it is cell-based. To be noted: mGluR1 and mGluR5 by Ca2+ mobilization; mGluR3, 4, 6, 8 by cAMP assay. The protocol: The Gq coupled receptors (mGluR1 and mGluR5) were tested using Ca^2+ mobilization assay. mGluR1 stable cell lines were plated into poly-L-lysine (PLL) coated 384-well black clear bottom cell culture plates with complete Basal Medium Eagle (BME) buffer, which was composed of 10% dialyzed FBS, penicillin G (100 units/mL), streptomycin (100 μg/mL) with tetracycline (1 μg/mL) at density of 20,000 cells in 40 μl per well for overnight. On the other hand, HEK-293 Cells transiently transfected using the calcium phosphate method with cDNA encoding mGluR5 for 40 h were plated into the plate with complete BME at density of 20,000 cells in 40 μL per well for 8 h. mGluR1 stable cells or cells transiently expressing mGluR5 were incubated with 20 μL of the calcium dye (FLIPR Calcium 4 Assay Kit; Molecular Devices) diluted in the assay buffer (1×FIBSS, 2.5 mM probenecid, and 20 mM HEPES, pH 7.4) for 45 min at 37° C. and 15 min at room temperature. To measure agonist activity of receptors, the drug plates were prepared with different concentrations of test or reference compound at 3 times the desired final concentration. […] Once loaded in FLIPR (Molecular Devices), basal fluorescence was measured for 10 s, then 10 μL of test or reference compounds were added, followed by continued fluorescence measurement for an additional 120 s. […]

The nature of data set [2]: Plasma protein binding assay (equilibrium dialysis, RED device). To be noted: rat plasma. Format: in vitro ADME. The protocol: Disposable RED device inserts (product 90006) were from Thermos Scientific (Waltham, Mass.). Each insert was made of two side-by-side chambers separated by a vertical cylinder of dialysis membrane (MWCO 8,000) validated for minimal non-specific binding. A stock solution of the test compound in DMSO was spiked into the rat plasma to reach a concentration of 10 μM. 400 μL of sample solution was placed into the sample chamber of the RED device, and 600 μL of phosphate-buffered saline (PBS) was added to the buffer chamber of the RED device. Samples were prepared in triplicates. The plate was covered with aluminum sealing cover and incubated at 37° C. on an orbital shaker at approximately 200 rpm for 5 h. After incubation, 300 μL of post-dialysis samples from the buffer and sample chambers were transferred to different microcentrifuge tubes. To the buffer sample was added 300 μL of plasma, and an equal volume of buffer was added to the collected plasma sample. 600 μL of cold acetonitrile was added to the samples, and the samples were vortexed and incubated for 30 min on ice and then were centrifuged at 14000 rpm for 10 min. Supernatant was transferred to vial for HPLC analysis (XTerra™ MS C18 5μ, 2.1×250 mm column; Gradient elution from 5% to 90% B in 30 min; 0.1 M ammonium formate in water (A) and acetonitrile (B); UV 254 nm; 100 μL of injection volume). The percentage of the test bound compound was calculated as % Free=(Concentration in buffer chamber/Concentration in plasma chamber)×100%; % Bound=100%−% Free (FIG. 6).
The experimental lipophilicity was measured by using liquid-liquid partition between n-octanol and water (“shake-flask method”) [see ref. 54]. […] The plasma protein binding comprises compounds' binding to albumin, α1-acid glycoprotein and lipoproteins once delivered to the bloodstream. This property was evaluated for compounds 1 and 2 by equilibrium dialysis [see ref. 56], where two chambers were separated by a dialysis membrane (MWCO 8 kD). The plasma protein bindings of 1 and 2 are 87.2% and 88.7%, respectively (see FIGS. 20 and 6). Therefore, the high plasma free fraction of compounds 1 and 2 (>10%) would allow enough free drug concentration in blood stream to reach the brain targets.
(In general: Equilibrium dialysis compares concentrations on both sides of a semipermeable membrane.)

Data set [3] is described as follows: Solution stability in aqueous buffers at different pH. Format: physicochemical. As to conditions: buffer solutions at pH 5.0, 7.4 and 9.4, 37° C., 2 h. The protocol: The solution stability of 3 was examined in the aqueous buffers at different pH values. 50 μL of compound in DMSO (0.25 mM) was added to the sodium acetate-KCl—HCl buffer (950 μL, 20 mM, pH 5.0), phosphate buffer (950 μL, 20 mM, pH 7.4), and boric acid-KCl—NaOH buffer (950 μL, 20 mM, pH 9.4), respectively. The mixtures were incubated for 2 h at 37° C. and analyzed by HPLC (Phenomenex Luna® column, 5 μm C18, 100 Å, 250×4.6 mm, eluents: CH3CN/H2O in 0.1% formic acid).
The in vitro plasma and liver microsomal stability of 1 and 2 were studied by incubating the test compounds in rat serum and rat liver microsomes as well as NADPH cofactor, respectively, using previously published methods [see refs. 57, 58]. Diltiazem and ML128 (a mGluR4 PAM) [see refs. 59, 60] were used as co-assay QC controls for plasma and microsomal stability assays, respectively, to ensure that the assays were operating properly, and that the activity of the plasma and microsomes were consistent with established criteria. […] The solution stability of 1 was evaluated with buffer solutions at pH 5.0, 7.4 and 9.4, respectively (FIGS. 10 and 20) [see refs. 61].

With `COc1cc(C(F)(F)F)ccc1C1CCN(Cc2nc3ncccc3n2C)CC1` [Compound 1], the “selectivity against other mGlu receptor subtypes” value in data set [1] was more than 100 fold. The compound also yielded a plasma protein binding in data set [2] (equilibrium dialysis, 10 μM) of 87.2%. Also, the fraction unbound at 5 h, 10 μM in data set [2] (read-out: plasma free fraction) is more than 0.1. Also, in data set [3], the “solution stability” value is recorded as “relatively stable”.
